Source: PubChem BioAssay (NCI)
Where “and” joins values, the source holds several entries; their conditions need not be identical. Equal entries are not always repeated.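 Where inhibition never reached the appropriate level, the endpoint shown equals the highest concentration tested. Otherwise, values were interpolated linearly from a five-concentration, 48-hour dose response in 96-well plates. At the GI50, growth is halved. TGI is the concentration that stops growth completely.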

Tests used:
Experiment in all cases: NCI tumour cell line growth inhibition, 48 h
HOP-62 NSCLC = tested on: HOP-62 NSCLC
T-47D breast = tested on: T-47D breast
UO-31 renal = tested on: UO-31 renal
UACC-62 melanoma = tested on: UACC-62 melanoma
NCI-H23 lung = tested on: NCI-H23 lung
TK-10 renal = tested on: TK-10 renal
MCF7 breast = tested on: MCF7 breast
OVCAR-3 ovarian = tested on: OVCAR-3 ovarian
RPMI-8226 leukemia = tested on: RPMI-8226 leukemia
SF-539 CNS = tested on: SF-539 CNS

SMILES	TGI (HOP-62 NSCLC) [µM]	TGI (T-47D breast) [µM]	TGI (UO-31 renal)	TGI (UACC-62 melanoma)	TGI (NCI-H23 lung) [µM]	TGI (TK-10 renal) [µM]	TGI (MCF7 breast) [µM]	TGI (OVCAR-3 ovarian) [µM]	TGI (RPMI-8226 leukemia) [µM]	TGI (SF-539 CNS)	GI50 (HOP-62 NSCLC)	GI50 (T-47D breast)	GI50 (UO-31 renal) [µM]	GI50 (UACC-62 melanoma) [µM]	GI50 (NCI-H23 lung)	GI50 (TK-10 renal)	GI50 (MCF7 breast)	GI50 (OVCAR-3 ovarian) [µM]	GI50 (RPMI-8226 leukemia) [µM]	GI50 (SF-539 CNS) [µM]
C/C(N)=N/OCc1nc(C)no1	> 100	> 100	> 100 µM	> 100 µM	> 100	> 100	> 100	> 100	> 100	> 100 µM										
CC(=O)NCCCCN(CCCNC(C)=O)C(=O)OCc1ccccc1	> 100	> 100	> 100 µM	> 100 µM	> 100	> 100	> 100	> 100	> 100	> 100 µM										
c1cc(CN2CCNCCNCCNCC2)cc(CN2CCNCCNCCNCC2)c1	> 100	> 100	> 100 µM	> 100 µM	> 100	> 100	> 100	> 100	> 100	> 100 µM										
c1n[nH]cc1C12C3C4C5C3C1C5C42 (stereo not given)	> 100	> 100	> 100 µM	> 100 µM	> 100	> 100	> 100	> 100	> 100	> 100 µM										
CCC(=O)C(CCN1CCC(N2C(=O)C(CCC#N)c3ccccc32)CC1)(c1ccccc1)c1ccccc1 (stereo not given)	32.2	29.3	21.4 µM	32.6 µM	48.8	31.2	25.5	22.9	21.8	34.5 µM										
COc1ccc(C(=O)Oc2c(C#N)sc3c2c(=O)n(-c2ccccc2)c(=S)n3-c2ccccc2)cc1	73.9	> 100	3.94 µM	24.5 µM	56.3	76	80.4	97.4	47.1	49.3 µM										
O=c1[nH]c2nc[nH]c2c(=O)n1C1CCCCC1	> 100	> 100	> 100 µM	> 100 µM	> 100	> 100	> 100	> 100	> 100	> 100 µM										
c1ccc(COC2C3COC(O3)C(OCc3ccccc3)C2OCc2ccccc2)cc1 (stereo not given)	> 100	> 100	> 100 µM	> 100 µM	> 100	> 100	> 100	> 100	> 100	> 100 µM										
O=C(O)Cc1cccc2c(=O)c3cccc([N+](=O)[O-])c3[nH]c12	> 100	> 100	> 100 µM	76 µM	> 100	> 100	> 100	> 100	> 100	78.1 µM										
O=C(/C=C(\Nc1ccccc1O)c1ccc(Br)cc1)C(Cl)(Cl)Cl	31.6	20.2	10.8 µM	26.3 µM	26.1	19.1	20	18.5	7.29	27.1 µM										
O=C(O)CCCc1ccccc1	> 1000	> 1000	715 µM and > 1000 µM	587 µM and > 1000 µM	> 1000	> 1000	> 1000	> 1000	79.2	533 µM and > 1000 µM	235 µM and > 1000 µM	203 µM and > 1000 µM	> 1000	> 1000	377 µM and > 1000 µM	285 µM and > 1000 µM	160 µM and > 1000 µM	537	19.5	> 1000
CCN1C[C@]2(C)CC[C@H](OC)C34C5C[C@@H]6[C@@H](OC)C[C@@](OC)(C5[C@H]6OCc5ccccc5)C(C13)[C@H](OC(C)=O)[C@@H]42 (stereo not given in full)	> 100	> 100	> 100 µM	> 100 µM	> 100	> 100	> 100	> 100	> 100	> 100 µM										
c1ccc(C2=C(c3ccccc3)Sc3nnc(CCCCCCCCc4nnc5n4NC(c4ccccc4)=C(c4ccccc4)S5)n3N2)cc1	> 100	79.2	> 100 µM	> 100 µM	> 100	> 100	> 100	> 100	> 100	> 100 µM										
C=C1C2CCC3(CCC4C5(C)CCCC4(C=[N+](CCO)C5)C3C2)C1O (stereo not given)	> 100	> 100	> 100 µM	> 100 µM	> 100	> 100	> 100	> 100	> 100	> 100 µM										
Cc1cccc(CNc2ncnc3[nH]ncc23)c1	> 100	> 100	> 100 µM	> 100 µM	> 100	> 100	> 100	> 100	> 100	> 100 µM										
C=C[C@]1(O[Si](C)(C)C)C[C@@]2(C(=O)OCC)C(O)C(=O)N3CCc4cc(OC)c(OC)cc4[C@]312 (stereo not given in full)	> 100	> 100	> 100 µM	> 100 µM	> 100	> 100	> 100	> 100	> 100	> 100 µM										
